# In PubChem BioAssay AID1508610 (The Scripps Research Institute Molecular Screening Center, 2020):
# Active and inactive are the calls of the source. The rule behind the calls is not given here.
# Target: G-protein coupled receptor 151 (Homo sapiens) (UniProt Q8TDV0)
# Test: GPR151 activator potency, dose response, cell-based (AID 1508610)
# Conditions: cell-based GPR151 activation reporter
# Sequence of G-protein coupled receptor 151 (Homo sapiens) (Q8TDV0 whole entry, looked up): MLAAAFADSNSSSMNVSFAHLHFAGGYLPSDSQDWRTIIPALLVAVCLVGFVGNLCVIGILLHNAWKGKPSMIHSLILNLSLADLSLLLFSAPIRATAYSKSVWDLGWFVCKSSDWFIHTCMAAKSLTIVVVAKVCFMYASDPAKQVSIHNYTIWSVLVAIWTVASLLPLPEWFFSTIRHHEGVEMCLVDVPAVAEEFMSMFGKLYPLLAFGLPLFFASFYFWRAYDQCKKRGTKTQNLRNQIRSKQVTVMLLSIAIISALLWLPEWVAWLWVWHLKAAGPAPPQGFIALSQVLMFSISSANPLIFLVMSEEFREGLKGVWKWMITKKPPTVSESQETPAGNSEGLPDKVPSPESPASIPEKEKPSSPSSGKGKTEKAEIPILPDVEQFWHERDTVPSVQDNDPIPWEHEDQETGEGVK
row,SMILES,EC50
1,Cc1ccc(-c2cnn(-c3ccc(C(=O)O)cc3)c2)cc1,> 28 µM (inactive)
2,COC(=O)c1cc2c(N3CCC(Cc4ccccc4)CC3)ncnc2s1,> 27.4 µM (inactive)
3,O=C1CCCCN1c1cccc(NS(=O)(=O)c2cc(F)ccc2F)c1,> 28 µM (inactive)
4,O=C(O)c1ccc(-n2cc(-c3ccc(Cl)cc3)cn2)cc1,> 28 µM (inactive)
5,Cc1c(C(=O)NCc2ccco2)oc2ccc(S(=O)(=O)N(C)C3CCCCC3)cc12,> 28 µM (inactive)
6,CCOC(=O)C(=O)N1CCN(c2ccccc2)CC1,> 28 µM (inactive)
7,Clc1nc(NCc2ccccc2)c2ncn(-c3ccccc3)c2n1,> 28.1 µM (inactive)
8,CCOc1ccc(C(=O)N2CCC(c3ncncc3-c3ccncc3)CC2)o1,> 28 µM (inactive)
9,O=C(O)c1ccc(/C=C2\SC(=S)N(CCS(=O)(=O)O)C2=O)cc1,> 28.5 µM (inactive)
10,COc1ccc(C(=O)Nc2cccc(C(=O)N3CCCC3)c2)cc1,> 28 µM (inactive)
11,Cc1ccc(NC(=O)CCNc2c(N3CCCC3)c(=O)c2=O)cc1Cl,> 28 µM (inactive)
12,CCOC(=O)c1sc(NC(=O)C2CC2)nc1C,> 28.6 µM (inactive)
13,Cc1ccc(C(=O)CSc2[nH]c(=O)ncc2C)cc1,> 28.6 µM (inactive)
14,CCOC(=O)c1c(NC(=O)CN2CC(C)OC(C)C2)sc(C)c1C (stereo not drawn),> 31.3 µM (inactive)
15,O=C(CCCOc1ccccc1)NNC(=O)c1ccccc1,> 30.1 µM (inactive)
16,NP(=O)(Oc1ccc(Cl)cc1)Oc1ccc(Cl)cc1,> 28.2 µM (inactive)
17,Cc1ccc(-c2nc3ccccc3[nH]2)cc1,> 35.1 µM (inactive)
18,CC(C)Cn1c(-c2nn(C)cc2Cl)n[nH]c1=S,> 28 µM (inactive)
19,CCOCCCNC(=O)c1cc([N+](=O)[O-])ccc1Cl,> 28 µM (inactive)
20,CCOCCOC(=O)C1=C(C)Nc2ccc(C)cc2S1,> 28 µM (inactive)
21,Oc1csc(Cc2nc(-c3ccccc3F)cs2)n1,> 28.7 µM (inactive)
22,CSc1nc2ccc(NC(=O)Cn3cnc4ccccc4c3=O)cc2s1,> 29.3 µM (inactive)
23,COc1ccc(NC(=O)CCC(=O)Oc2ccc(C)cc2)cc1,> 28 µM (inactive)
24,COc1cc(Nc2cc(-c3ccc(C(N)=O)cc3)nc(N)n2)cc(OC)c1OC,> 25.6 µM (inactive)
25,CCN=C1SC(CC(=O)Nc2sc(C)c(C)c2C(=O)OC)C(=O)N1CC (stereo not drawn),> 28.2 µM (inactive)
26,CC(=O)c1ccc(OC(=O)c2cccc(Br)c2)cc1,> 25.9 µM (inactive)

row,SMILES,EC50
1,O=C(NCc1ccc(F)cc1)c1cc(-c2ccccc2Cl)nc2ccccc12,> 32.1 µM (inactive)
2,COc1ccc(/C=C/C(=O)Nc2ccccc2F)cc1,> 30.5 µM (inactive)
3,CN1CCN(c2cc(-c3cn[nH]c3)ccc2NC(=O)Cc2cccc(Cl)c2)CC1,1.25 µM
4,Cc1nn(C)cc1CN1CCOc2ccc(CN3CCc4ccccc4C3)cc2C1,> 28 µM (inactive)
5,COCCNCCOc1ccc(C)cc1C,> 28 µM (inactive)
6,O=S(=O)(NN=C1CCCCCC1)c1ccccc1,> 28 µM (inactive)
7,CCC1CN(CCNC(=O)CC2CCCC2)Cc2cc(OC)ccc2O1 (stereo not drawn),> 28 µM (inactive)
8,COc1ccc(-c2ccc(C(=O)Nc3ccc(NC(C)=O)cc3)s2)cn1,> 28.2 µM (inactive)
9,O=C(NCCO)c1ccc(-c2ccc(N3CCOCC3)nc2)s1,> 27 µM (inactive)
10,Cc1ccc2nc(/C(C#N)=C\c3ccccc3OCC#N)[nH]c2c1,> 28 µM (inactive)
11,Cc1ccc(-c2nc(-c3ccccn3)no2)cc1,> 31.3 µM (inactive)
12,O=C1[C@H]2[C@H]3[C@H](O)[C@H](O)C/C(=N\OCc4ccccc4)[C@H]3CC[C@H]2C(=O)N1C1CCCCC1,inactive
13,COc1ccc(/C=C/C(=O)Nc2ccccc2)cc1,> 32.6 µM (inactive)
14,Cc1ccnc(SCc2cc(=O)c(OC(=O)c3cc(Cl)ccc3[N+](=O)[O-])co2)n1,> 28.4 µM (inactive)
15,C=CCN1C(=O)/C(=C/c2ccc(Cl)cc2)C(=O)NC1=S,> 28 µM (inactive)
16,O=C(O)c1cccc(COc2ccc(CO)cc2Br)c1,> 28 µM (inactive)
17,Cc1ccc2nc(NC(=O)C3=COCCO3)sc2c1,> 28.4 µM (inactive)
18,CCC(=O)N1CCN(c2ccc(NC(=O)c3ccco3)cc2)CC1,> 28 µM (inactive)
19,Cc1ccc(/C(=N/NC(=O)Cc2ccccc2)C23CN4CN(CN(C4)C2)C3)cc1,> 28 µM (inactive)
20,Cn1c(=O)c2c(nc(N3CCCCCC3)n2CCc2ccccc2)n(C)c1=O,> 27.9 µM (inactive)
21,O=C1NC(=S)S/C1=C\c1ccc(C(=O)O)cc1,> 29.6 µM (inactive)
22,Cc1ccc2nc(-c3ccc(O)cc3)[nH]c2c1,> 28 µM (inactive)
23,CCn1c(/C=C/C=C2\N(C)c3ccccc3C2(C)C)[n+](Cc2ccccc2)c2ccccc21,2.75 µM
24,O=[N+]([O-])c1ccc(NS(=O)(=O)Cc2ccccc2)c([N+](=O)[O-])c1,> 28 µM (inactive)
25,O=C(O)c1ccc(-n2cc(-c3cnccn3)cn2)cc1,> 28 µM (inactive)
26,Cc1ccccc1-n1c(=O)cc(NCCCn2ccnc2)[nH]c1=O,> 28 µM (inactive)

row,SMILES,EC50
1,CCCNC(=O)c1ccc(-c2ccc(N3CCOCC3)nc2)s1,> 28.1 µM (inactive)
2,COc1cc([N+](=O)[O-])ccc1NC(=O)Nc1ccc(Cl)cc1F,> 28 µM (inactive)
3,O=C(Nc1nc(-c2ccc(I)cc2)cs1)c1ccc(Cl)s1,> 24.9 µM (inactive)
4,CCOC(=O)c1ccccc1NC(=O)CN(c1ccc(Cl)c(Cl)c1)S(C)(=O)=O,> 28 µM (inactive)
5,OC1CCN(Cc2ccc3c(c2)CN(CC2CC=CCC2)CCO3)CC1 (stereo not drawn),> 28 µM (inactive)
6,CC1(C)Cc2c(C#N)c(N3CCCC3)nc(-c3ccco3)c2CO1,> 28 µM (inactive)
7,COc1cccc(-c2ccc(SCC(=O)Nc3ccc4c(c3)OCCO4)nn2)c1,> 28.7 µM (inactive)
8,O=C(O)CCC(NCC(O)Cn1c2ccccc2c2ccccc21)C(=O)O (stereo not drawn),> 28.7 µM (inactive)
9,c1ccc2[nH]c(-c3nc4ccccc4o3)nc2c1,> 28.6 µM (inactive)
10,CSc1cccc(CN2CCN(Cc3ccccc3F)C(CCO)C2)c1 (stereo not drawn),> 28 µM (inactive)
11,Cc1cccc2c(C(=O)NCc3ccccc3)cc(-c3ccccc3)nc12,> 24.6 µM (inactive)
12,Cc1ccc(S(=O)(=O)Cn2nnnc2CN2CCN(c3ccccc3F)CC2)cc1,> 28 µM (inactive)
13,Cc1ccc(C(=O)Nc2ncc([N+](=O)[O-])s2)cc1,> 31.4 µM (inactive)
14,COc1ccc(CCNC(=O)/C=C\C(=O)O)cc1OC,> 28 µM (inactive)
15,CCCOc1ccc(NC(=O)C2CC(=O)N(CC)C(=Nc3ccc(C)c(C)c3)S2)cc1 (stereo not drawn),> 26.4 µM (inactive)
16,Nc1ncnc2c1ccn2[C@@H]1O[C@H](CO)[C@@H](O)[C@H]1O,3.11 µM
17,O=C(Nc1cc(Cl)ccc1Cl)c1ccccc1O,> 34 µM (inactive)
18,O=C(NCCO)c1ccc2nc(-c3csc4ccccc34)sc2c1,> 28.1 µM (inactive)
19,O=c1oc2cc(O)ccc2cc1-c1ccccc1,> 28.2 µM (inactive)
20,CCc1ccc2c(c1)/C(=C/C(=O)c1cccs1)C(=O)N2,> 28 µM (inactive)
21,Cc1cc2nc(-c3ccc[nH]c3=O)[nH]c2cc1C,> 28.1 µM (inactive)
22,Cc1nn(Cc2ccc(F)cc2)c(C)c1N,> 28 µM (inactive)
23,CCCN1C(=O)C[n+]2ccccc2C1C(=O)Nc1ccccc1C (stereo not drawn),> 28 µM (inactive)
24,CC1CCN(S(=O)(=O)c2ccc(NC(=O)CSc3nc4ccccc4o3)cc2)CC1,inactive
25,CCC[n+]1c(/C=C2\Sc3ccccc3N2CC)ccc2ccccc21,> 24.5 µM (inactive)
26,CC(=O)Nc1ccc(NC(=O)c2ccc3nc(Nc4ccccn4)sc3c2)cc1,> 28 µM (inactive)

row,SMILES,EC50
1,O=C(Nc1ncc([N+](=O)[O-])s1)c1ccccc1F,> 34 µM (inactive)
2,CCc1ccccc1N(CC(=O)Nc1ccccc1Cl)S(C)(=O)=O,0.00153 µM
3,CC(C)=CCN1CCN(Cc2sccc2C)CC1CCO (stereo not drawn),> 28 µM (inactive)
4,C=CCOC(=O)C1=C(C)N2CCSC2=C(C#N)C1c1ccco1 (stereo not drawn),> 32 µM (inactive)
5,CCOC(=O)c1c(C)c(C(=O)NCCC(C)C)c(C)n1C,> 28 µM (inactive)
6,CCOC(=O)N1CCc2nc(NC(=O)c3ccnn3CC)sc2C1,> 28 µM (inactive)
7,Cc1ccc(NC(=O)CN(C)S(=O)(=O)c2ccc(Br)cc2)cc1Cl,> 28 µM (inactive)
8,COc1ccc(-c2noc(CCC(=O)Nc3ccc(C)c(C)c3)n2)cc1,> 28 µM (inactive)
9,COc1cccc(OC)c1C(=O)Nc1ccc(Br)cn1,> 28 µM (inactive)
10,COc1ccc(S(=O)(=O)Nc2ccc(F)c(F)c2)cc1C,> 28 µM (inactive)
11,CCOC(=O)c1cc2c(c(CSc3nc4ccccc4c(=O)n3Cc3ccc4c(c3)OCO4)c1)OCOC2,> 21.4 µM (inactive)
12,Nc1nc2n(n1)C(c1ccccc1Cl)CC(c1ccc(F)cc1)N2 (stereo not drawn),> 28 µM (inactive)
13,c1cncc(-c2noc(C34CC5CC(CC(C5)C3)C4)n2)c1,> 26.4 µM (inactive)
14,COc1cc(N)c(Cl)cc1C(=O)OCCOc1ccc(Br)cc1,> 30.8 µM (inactive)
15,N#C/C(=C\c1c(Oc2ccc(Cl)cc2Cl)nc2ccccn2c1=O)C(N)=O,> 27.9 µM (inactive)
16,O=c1oc(Nc2cccc(C(F)(F)F)c2)nc2ccccc12,> 28.4 µM (inactive)
17,COc1ccc(Br)cc1C(=O)NCC1COc2ccccc2O1 (stereo not drawn),> 28 µM (inactive)
18,CC(=O)OC(C(=O)NCc1ccco1)c1ccncc1 (stereo not drawn),> 28 µM (inactive)
19,CCN(CC)C(=S)SCCC(=O)NC(=O)Nc1ccc(F)cc1,> 28 µM (inactive)
20,COc1ccc(C(=O)N/N=C/c2ccc(O)cc2O)cc1OC,> 28 µM (inactive)
21,CCN(CC(=O)NC1CCCCCC1)S(=O)(=O)c1ccc(C)cc1,> 28 µM (inactive)
22,O=C1NC(=O)C(=Cc2cc(Br)ccc2OCc2ccccc2F)C(=O)N1,> 28 µM (inactive)
23,Cc1cccc(-c2cnc(C)nc2C2CCCN(C(=O)CN(C)C)C2)c1 (stereo not drawn),> 28 µM (inactive)
24,O=C(Nc1nc2ccccc2s1)c1ccccc1F,> 31.9 µM (inactive)
25,CCCCCCCCCCCCCCCC(=O)SCCOP(=O)(O)OCC[N+](C)(C)C,> 11.2 µM (inactive)
